Consider eight molecules from US5175283A, “Azetidin-2-one derivatives as serine protease inhibitors” (Bristol-Myers Squibb Company, priority 1992, dated 1992).

pIC50: −log10 of the molar value. Where a name gives a salt, the structure may show the parent alone.

In assay [1] the target is T1, human α-thrombin (Homo sapiens, UniProt P00734).
T1 construct: purified human α-thrombin dissolved in thrombin assay buffer
The assay is described as follows: Enzyme assay for the inhibition of thrombin (s-2238 substrate). Also on record: key to Thrombin k2 /ki (second order rate constant), cells with symbol *: *: not measurable. In kind it is biochemical. Particulars: for pIC50: 3 min incubation of drug with enzyme, room temperature; for Thrombin k2 /ki (second order rate constant for inactivation of the enzyme) / Thrombin k2 /ki (second order rate constant), cells with symbol *: human α-thrombin; for Thrombin k2 /ki (second order rate constant for inactivation of the enzyme): s-2238, pH 7.4, room temperature; for Thrombin k2 /ki (second order rate constant), cells with symbol *: * = not measurable. The method, then: 1. Enzyme Assays for the Inhibition of Thrombin The following reagents were used in these assays: Thrombin assay buffer: 145 mM NaCl, 5 mM KCl, 30 mM N-2-hydroxyethyl piperazine-N'-2-ethanesulfonic acid, pH 7.4, 1 mg/ml polyethylene glycol (PEG-8000). 3 mM D-Phe-Pip-Arg-p-nitroanilide (s-2238) in H2 O. 3 U/ml purified human α-thrombin dissolved in thrombin assay buffer. Inhibitors to be tested were dissolved in H2 O, methanol, or DMSO just prior to use. Assay Procedure To each well in a 96-well microtiter plate, 270 μl of assay buffer was added. Human α-thrombin (10 μl of 3 U/ml) was added, then 10 μl of inhibitor were added and mixed. The samples were incubated at room temperature for a defined period of time (3 min for initial IC50 determinations). The enzymic reaction was started with 10 μl of 3 mM s-2238 substrate and continued at room temperature. The change in optical density was measured at 405 nm. A kinetic microplate reader (Molecular Devices Corporation Vmax) was used to measure the change in optical density over time. Results are reported in Table 1 as IC50 values, i.e., the drug concentration in mole/liter which caused 50% inhibition of the enzyme activity (after incubation of the drug with the enzyme for 3 min). Alternatively, results are also reported in Table 1 expressed as k2 /ki which is the second order rate constant in per mole per minute for inactivation time of the enzyme [Kitz, et al., J. Biol. Chem., 237, 3245 (1962)].

Assay [2] addresses T1, human α-thrombin. The assay is described as follows: Concentration required for doubling thrombin clotting time in human plasma. In kind it is biochemical. Conditions: human citrated plasma, 10 U/ml human thrombin; read-out: ED50, drug concentration required to double clotting time. The method, then: Procedure for Determining the Concentration Required for Doubling Thrombin Clotting Time--Clotting Time Assays The following reagents were used in these assays: Owren's Veronal Buffer: 125 mM NaCl, 28.4 mM sodium barbital, pH 7.35. Human citrated plasma obtained from human volunteers or citrated plasma obtained from IP-dosed animals (prepared as described below). 10 NIH Units/ml human α-thrombin in thrombin buffer for use with human plasma. […] The blood was centrifuged at […] (480×g) for 15 min at room temperature (using a Sorvall RT 6000B centrifuge). The plasma was removed, pooled, and aliquoted into small tubes which were stored frozen for later use. Clotting Time Measurement Clotting times were determined by pipetting 0.1 ml of Owren's buffer (pre-warmed 37° C.) and 0.1 ml of human or rat plasma into yellow sample cuvettes. For studies with human plasma 10 U/ml human thrombin (10 ml) was placed in the reservoir assembly station of the MLA 700. (Medical Laboratory Automation, Electra 700 Reservoir Assembly). For rat studies, the human thrombin concentration was 25 U/ml. The cuvettes were vortexed and then placed on the MLA 700 sample wheel. The coagulation timer (MLA 700) automatically dispenses 0.1 ml human thrombin into the sample in each cuvette. Detection of the fibrin clot was determined optically by the MLA 700. Studies were performed to determine the concentration of drug which caused a doubling of the clotting time in human plasma. From standard curves of thrombin activity added to the sample versus the clotting time, the concentration of drug which caused a doubling of the thrombin clotting time corresponded to inhibition of approximately 1/2 of the added thrombin clotting activity. Results are reported in Table 1 as ED50 values, i.e., the drug concentration required to double clotting time.

As for `CC(=O)OC1C(CCCNC(=N)N)C(=O)N1C(=O)C(C)(C)C` (stereo not shown) [XXI, 4-Acetyloxy-3-guanidinopropyl-1-t-butylcarbonyl-2-azetidinone hydrochloride salt], at human α-thrombin [1], the pIC50 was 7.13.

Regarding `CCS(=O)(=O)[C@H]1[C@H](CCCNC(=N)N)C(=O)N1C(C)=O` (relative stereo) [Compound X, trans-4-Ethylsulfonyl-3-quanidinopropyl-1-acetyl-2-azetidinone hydrochloride salt], the “Thrombin k2 /ki (second order rate constant for inactivation of the enzyme)” value at human α-thrombin [1] was 3.0 × 10^6 m^-1 min^-1.

Consider `CC(=O)N1C(=O)C(CCCNC(=N)N)C1C(=O)N1CCC[C@H]1C(=O)O` (stereo partly drawn) [XVIII, trans-4-[(2-Carboxy-1-pyrrolidinyl)carbonyl]-3-(3-guanidino)-procyl-1-acetyl-2-azetidinone hydrochloride salt], for which, on human α-thrombin [1], the pIC50 is 7.31 and the “Thrombin k2 /ki (second order rate constant for inactivation of the enzyme)” value is 4.3 × 10^6 m^-1 min^-1. On human α-thrombin [2], the IC (2-fold clotting time) was found to be 1.25 µM.

Turning to `CC(=O)OC1C(CCCNC(=N)N)C(=O)N1C(=O)c1ccccc1` (stereo not shown) [XXII, 4-Acetyloxy-3-guanidinooropyl-1-phenylcarbonyl-2-azetidinone hydrochloride salt], at human α-thrombin [1], the pIC50 was 7.46 and the “Thrombin k2 /ki (second order rate constant), cells with symbol *” value was “*”. In addition, the IC (2-fold clotting time) at human α-thrombin [2] was 10.0 µM.

Regarding `CC(=O)N1C(=O)[C@H](CCCNC(=N)N)[C@@H]1C(=O)N1CCCCC1` (relative stereo) [XXIII, cis-4-(1-Piperidinocarbonyl)-3-guanidinopropyl-1-acetyl-2-azetidinone hydrochloride salt], the “Thrombin k2 /ki (second order rate constant for inactivation of the enzyme)” value at human α-thrombin [1] is given as 4.3 × 10^4 m^-1 min^-1. For the same molecule, at human α-thrombin [2], the IC (2-fold clotting time) turned out to be 20 µM.

In the case of `CN(C)c1cccc2c(S(=O)(=O)N3CC(CCCNC(=N)N)C3=O)cccc12` (stereo not shown) [IX, 3-Guanidinopropyl-1-[(5-dimethylamino)-1-naphthanesulfonyl)]-2-azetidinone hydrochloride salt], at human α-thrombin [1], the pIC50 is 6.00 and the “Thrombin k2 /ki (second order rate constant), cells with symbol *” value is reported as “*”. For the same molecule, at human α-thrombin [2], the IC (2-fold clotting time) is recorded as 30 µM.

On human α-thrombin [1], `CC(=O)N1CC(CCCNC(=N)N)C1=O` (stereo not shown) [VIII, 3-Guanidinopropyl-1-acetyl-2-azetidinone hydrochloride salt] had a negative-log IC50 (pIC50) of 7.00.

As for `COC(=O)[C@H]1[C@H](CCCCNC(=N)N)C(=O)N1S(=O)(=O)c1cccc2c(N(C)C)cccc12` (relative stereo) [XVII, trans-4-Methoxycarbonyl-3-(4-guanidinobutyl)-1-[(5-dimethylamino)-1-naphthalenesulfonyl]-2-azetidinone hydrochloride salt], the “Thrombin k2 /ki (second order rate constant for inactivation of the enzyme)” value at human α-thrombin [1] is given as 3.7 × 10^5 m^-1 min^-1. Besides, the IC (2-fold clotting time) at human α-thrombin [2] is 50 µM.
